Assay results reported in patent US11992530B2 (priority 2018, dated 2024).
Where “and” joins values, the source holds several entries; their conditions need not be identical. Equal entries are not always repeated. Where two headings read alike, the source gives them in different places.

How the values were obtained:
[1] = for Cisplatin Concentration: 24° C.
Description: In one aspect, a mixed mode C-18 chromatography column is used in the assay, which has both hydrophobic interaction and ion exchange capabilities. In another aspect, the HPLC run time for the assay is about 2 min, about 5 min, about 7.5 min, about 10 min or about 15 min. In one aspect, the HPLC run time is about 5 min or about 10 min.
In another aspect, the concentration is analyzed using HPLC with a mixed mode C-18 chromatography column at a column temperature of 35° C., flow rate of 400 μL/min, and UV detection at 220 nm. In one aspect, the HPLC method comprises a step gradient of 100% Buffer A (0.5 mM ammonium formate in 9:1 water:acetonitrile, pH 4) for 3 min; then 90% Buffer A and 10% Buffer B (200 mM ammonium formate in 7:3 water:acetonitrile, pH 4) for 3.5 min; then 100% Buffer A for 4.5 min.
The method uses a Waters Acquity H-Class HPLC system with an Imtakt Scherzo SW-C18 mixed mode column. The HPLC method conditions are outlined in Table 7. […] This range covers greater than two orders of magnitude at dose-relevant concentrations.
Each sample was transferred to an HPLC vial and placed in an autosampler chamber held at 24° C. Samples were injected onto the HPLC system approximately every 30 minutes to obtain 4 time-points for each sample. A gradient was run and the retention time and peak area were obtained.

[2] = tested on: cisplatin-induced ototoxicity
Description: Reference is made to International Patent Application Publication No. WO 2019/108592, which is a continuation of U.S. patent application Ser. No. 15/826,243, filed on Nov. 29, 2017, both of which are incorporated by reference herein in their entirety.

[3] = Clinical pharmacokinetics (plasma levels, distribution, excretion)
Description: The compound is available as anhydrous and crystalline forms; the pentahydrate crystalline form is the most common hydrate form. […] Proposed mechanisms of action involve its […], which allow it to act as a free radical scavenger and/or by covalent binding and inactivating the platinum compound.
(§1) Thiosulfate is an endogenous compound ubiquitously present in all cells and organs.

[4] = animals
Description: as §1

[5] = tested on: human plasma proteins
Description: as §1

[6] = cited from earlier work
[7] = tested on: small cell lung cancer cell cultures; settings: cited from earlier work
[8] = Dynamic vapor sorption (DVS) isotherm; settings: for DVS weight loss upon desorption: hysteresis observed
[9] = thiosulfate:cisplatin 5:1 (n = 2)
[10] = thiosulfate:cisplatin 6:1 (n = 2)
[11] = thiosulfate:cisplatin 10:1 (n = 2)
[12] = preliminary clinical studies, dose equivalent to 5.1 g/m^2 sodium thiosulfate for injection

O=S([O-])([O-])=S.[Na+].[Na+] [STS, sodium thiosulfate]
Half-life of cisplatin (time to reach 333/2 μM) [1, 9]: 198 min
Slope, linear regression of cisplatin conc. vs. time [1, 9]: −0.80 Cisplatin Area/min
Cisplatin Concentration ([1]; thiosulfate:cisplatin 5:1, 4 min): 323.7 µM
Cisplatin Concentration ([1]; thiosulfate:cisplatin 5:1, 37 min): 294.2 µM and 294.0 µM
Cisplatin Concentration ([1]; thiosulfate:cisplatin 5:1, 70 min): 266.8 µM and 268.0 µM
Cisplatin Concentration ([1]; thiosulfate:cisplatin 5:1, 103 min): 243.7 µM and 245.3 µM
Half-life of cisplatin (time to reach 333/2 μM) [1, 10]: 184 min
Slope, linear regression of cisplatin conc. vs. time [1, 10]: −0.87 Cisplatin Area/min
Cisplatin Concentration ([1]; thiosulfate:cisplatin 6:1, 5 min): 325.4 µM and 324.5 µM
Cisplatin Concentration ([1]; thiosulfate:cisplatin 6:1, 38 min): 286.4 µM and 293.2 µM
Cisplatin Concentration ([1]; thiosulfate:cisplatin 6:1, 71 min): 259.8 µM and 266.2 µM
Cisplatin Concentration ([1]; thiosulfate:cisplatin 6:1, 104 min): 235.6 µM and 240.5 µM
Half-life of cisplatin (time to reach 333/2 μM) [1, 11]: 136 min
Slope, linear regression of cisplatin conc. vs. time [1, 11]: −1.13 Cisplatin Area/min
Cisplatin Concentration ([1]; thiosulfate:cisplatin 10:1, 4 min): 319.5 µM
Cisplatin Concentration ([1]; thiosulfate:cisplatin 10:1, 5 min): 320.3 µM
Cisplatin Concentration ([1]; thiosulfate:cisplatin 10:1, 37 min): 269.4 µM
Cisplatin Concentration ([1]; thiosulfate:cisplatin 10:1, 38 min): 278.5 µM
Cisplatin Concentration ([1]; thiosulfate:cisplatin 10:1, 70 min): 235.2 µM
Cisplatin Concentration ([1]; thiosulfate:cisplatin 10:1, 71 min): 239.6 µM
Cisplatin Concentration ([1]; thiosulfate:cisplatin 10:1, 103 min): 205.6 µM
Cisplatin Concentration ([1]; thiosulfate:cisplatin 10:1, 104 min): 209.3 µM
Prevention of ototoxicity ([2]; doses equivalent to 6.4 to 12.8 g/m^2 sodium thiosulfate for injection): prevented ototoxicity
Ototoxicity in pediatric patients treated with platinum based chemotherapeutics ([2]; pediatric patients): reduces ototoxicity
Hearing protection [2, 12]: did not show hearing protection
Survival ([2]; treatment 6 hours after completion of each CIS infusion): did not affect survival
Efficacy of cisplatin based chemotherapeutics when STS was administered ([2]; two phase III clinical trials, pediatric patients): not affected
Plasma accumulation ([3]; administered on 2 consecutive days): no plasma accumulation
Volume of distribution ([3]; adults): 0.23 L/kg
Maximum STS plasma levels ([3]; children and adults, 15-minute infusion, dose equivalent to 12.8 g/m^2 sodium thiosulfate for injection): approximately 13.3 mM
Distribution across the blood brain barrier or placenta ([3]; human, in vivo): absent or limited
Absorption after oral administration ([3]; oral): poorly absorbed
Maximum plasma levels [3, 12]: 3.9 mM
Distribution to the cochlea [4]: distribute to the cochlea
Binding to human plasma proteins [5]: does not bind
Serum sodium levels (doses equivalent to 12.8 g/m^2 sodium thiosulfate for injection): small, transient increase
Renal or other toxicities (pediatric patients treated with a platinum based chemotherapeutic): not exacerbate renal or other toxicities
Excreted in the urine unmodified ([6]; following IV administration): Up to 95%
Biological half-life ([6]; human, in vivo): 0.65 hours
Biological half-life, range dependent on dose ([6]; human, in vivo): 16.5-182 minutes
Cytotoxicity of etoposide after immediate or delayed addition of STS ([7]; incubation for 72 hours): no reduction of cytotoxicity
Anti-tumor activity of doxorubicin, carmustine (BCNU), paclitaxel, or methotrexate with STS ([7]; similar studies): no reduction of anti-tumor activity

O=S([O-])([O-])=S.[Na+].[Na+] [anhydrous sodium thiosulfate, Sodium thiosulfate anhydrous]
DVS weight change upon equilibration to 0% relative humidity [8]: minimal weight change
DVS weight loss upon desorption [8]: 51%

O.O.O.O.O.O=S([O-])([O-])=S.[Na+].[Na+] [sodium thiosulfate pentahydrate]
DVS weight gain upon sorption [8]: 81%
DVS weight loss upon drying [8]: 27%
DVS weight loss upon desorption [8]: 51%

O=S(O)(O)=S [thiosulfate]
Endogenous serum thiosulfate levels ([3]; adult volunteers): 5.5 ± 1.8 µM
